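Method: 48-hour compound exposure of cells in 96-well plates, five concentrations, linear interpolation of endpoints. GI50 is the concentration that inhibits growth by half.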 Active and inactive are the calls of the source. Cut-off read from the data, not from the text of the source: active = GI50 up to about 1.1 µM and inactive = higher.
Legend:
Test in all cases: DTP human tumour cell line panel, 48 h
[1] = system: 786-0
[2] = system: A498
[3] = system: A549
[4] = system: ACHN
[5] = system: BT-549
[6] = system: CAKI-1
[7] = system: CCRF-CEM
[8] = system: COLO 205
[9] = system: DU-145
[10] = system: EKVX
[11] = system: HCT-116
[12] = system: HCT-15
[13] = system: HL-60
[14] = system: HOP-62
[15] = system: HT-29
[16] = system: Hs-578T
[17] = system: IGROV-1
[18] = system: K562
[19] = system: KM12
[20] = system: LOX IMVI
[21] = system: M14
[22] = system: MCF7
[23] = system: MDA-MB-231
[24] = system: MDA-MB-435
[25] = system: MOLT-4
[26] = system: Malme-3M
[27] = system: NCI-H226
[28] = system: NCI-H23
[29] = system: NCI-H460
[30] = system: NCI-H522
[31] = system: NCI/ADR-RES
[32] = system: OVCAR-3
[33] = system: OVCAR-4
[34] = system: OVCAR-5
[35] = system: OVCAR-8
[36] = system: PC-3
[37] = system: RPMI-8226
[38] = system: RXF 393
[39] = system: SF-268
[40] = system: SF-295
[41] = system: SF-539
[42] = system: SK-MEL-28
[43] = system: SK-MEL-2
[44] = system: SK-MEL-5
[45] = system: SK-OV-3
[46] = system: SN12C
[47] = system: SNB-19
[48] = system: SNB-75
[49] = system: SR
[50] = system: SW-620
[51] = system: T47D
[52] = system: TK-10
[53] = system: U-251
[54] = system: UACC-257
[55] = system: UACC-62
[56] = system: UO-31
[57] = system: HOP-92

## COc1cc2nc(-c3cccs3)nc(Nc3cccc([N+](=O)[O-])c3)c2cc1OC
[1]
  GI50: 21.3 µM (inactive)
[2]
  GI50: > 100 µM (inactive)
[3]
  GI50: 21.1 µM (inactive)
[4]
  GI50: 15.7 µM (inactive)
[5]
  GI50: 19.5 µM (inactive)
[6]
  GI50: 21.9 µM (inactive)
[7]
  GI50: 31.5 µM (inactive)
[8]
  GI50: 19.3 µM (inactive)
[9]
  GI50: 16.3 µM (inactive)
[10]
  GI50: 15.3 µM (inactive)
[11]
  GI50: 17.8 µM (inactive)
[12]
  GI50: 16.5 µM
[13]
  GI50: 43.4 µM (inactive)
[14]
  GI50: 18.7 µM (inactive)
[15]
  GI50: 28.1 µM (inactive)
[16]
  GI50: 26.9 µM (inactive)
[17]
  GI50: 17.3 µM (inactive)
[18]
  GI50: 39 µM (inactive)
[19]
  GI50: 17.9 µM (inactive)
[20]
  GI50: 18.4 µM (inactive)
[21]
  GI50: 17 µM (inactive)
[22]
  GI50: 24.9 µM (inactive)
[23]
  GI50: 18 µM (inactive)
[24]
  GI50: 17 µM (inactive)
[25]
  GI50: 24.9 µM (inactive)
[26]
  GI50: 18.9 µM (inactive)
[27]
  GI50: 18.2 µM (inactive)
[28]
  GI50: 11 µM (inactive)
[29]
  GI50: 26.3 µM (inactive)
[30]
  GI50: 17.6 µM (inactive)
[31]
  GI50: 20.8 µM (inactive)
[32]
  GI50: 20.7 µM (inactive)
[33]
  GI50: 30.9 µM (inactive)
[34]
  GI50: 17.8 µM (inactive)
[35]
  GI50: 21.5 µM (inactive)
[36]
  GI50: 19.6 µM (inactive)
[37]
  GI50: 28.1 µM (inactive)
[38]
  GI50: 25.9 µM (inactive)
[39]
  GI50: 20.3 µM (inactive)
[40]
  GI50: 21.6 µM (inactive)
[41]
  GI50: 18.2 µM (inactive)
[42]
  GI50: 23.7 µM (inactive)
[43]
  GI50: 20.7 µM (inactive)
[44]
  GI50: 29.2 µM (inactive)
[45]
  GI50: 20.3 µM (inactive)
[46]
  GI50: 17.4 µM (inactive)
[47]
  GI50: 17.6 µM (inactive)
[48]
  GI50: 29 µM (inactive)
[49]
  GI50: 10.8 µM (inactive)
[50]
  GI50: 24.2 µM (inactive)
[51]
  GI50: 16.4 µM (inactive)
[52]
  GI50: 20.8 µM (inactive)
[53]
  GI50: 17.3 µM (inactive)
[54]
  GI50: 21.6 µM (inactive)
[55]
  GI50: 16.8 µM (inactive)
[56]
  GI50: 19.2 µM (inactive)

## CC(C)(C)OC(=O)c1cnc(Cl)cn1
[1]
  GI50: > 100 µM (inactive)
[3]
  GI50: 69.7 µM (inactive)
[4]
  GI50: 35.6 µM (inactive)
[5]
  GI50: 48.5 µM (inactive)
[6]
  GI50: 3.56 µM (inactive)
[7]
  GI50: 18.7 µM (inactive)
[8]
  GI50: 71.3 µM (inactive)
[9]
  GI50: 87.5 µM (inactive)
[10]
  GI50: 24.2 µM (inactive)
[11]
  GI50: 33.6 µM (inactive)
[12]
  GI50: 11.7 µM
[14]
  GI50: > 100 µM (inactive)
[57]
  GI50: 3.12 µM (inactive)
[15]
  GI50: 46.9 µM (inactive)
[16]
  GI50: 35.2 µM (inactive)
[17]
  GI50: 23.4 µM (inactive)
[18]
  GI50: 28.4 µM (inactive)
[19]
  GI50: 22.3 µM (inactive)
[20]
  GI50: 23.8 µM (inactive)
[21]
  GI50: 29.4 µM (inactive)
[22]
  GI50: 23.5 µM (inactive)
[23]
  GI50: 46.1 µM (inactive)
[24]
  GI50: 56.6 µM (inactive)
[25]
  GI50: 27.3 µM (inactive)
[26]
  GI50: 51.6 µM (inactive)
[27]
  GI50: 34.9 µM (inactive)
[28]
  GI50: 20.7 µM (inactive)
[29]
  GI50: 49.7 µM (inactive)
[30]
  GI50: 1.05 µM (active)
[31]
  GI50: 50 µM (inactive)
[33]
  GI50: 28.1 µM (inactive)
[34]
  GI50: 83.4 µM (inactive)
[35]
  GI50: 38.2 µM (inactive)
[36]
  GI50: 64.7 µM (inactive)
[37]
  GI50: 23.7 µM (inactive)
[39]
  GI50: 55.5 µM (inactive)
[40]
  GI50: > 100 µM (inactive)
[41]
  GI50: > 100 µM (inactive)
[42]
  GI50: 37.8 µM (inactive)
[43]
  GI50: 29.9 µM (inactive)
[44]
  GI50: 47.3 µM (inactive)
[45]
  GI50: > 100 µM (inactive)
[46]
  GI50: 31.8 µM (inactive)
[47]
  GI50: 95.3 µM (inactive)
[48]
  GI50: > 100 µM (inactive)
[49]
  GI50: 45 µM (inactive)
[50]
  GI50: 55.8 µM (inactive)
[51]
  GI50: 35.2 µM (inactive)
[52]
  GI50: > 100 µM (inactive)
[53]
  GI50: 33.8 µM (inactive)
[54]
  GI50: 30.4 µM (inactive)
[55]
  GI50: 31.8 µM (inactive)
[56]
  GI50: 6.19 µM (inactive)

## O=S(=O)(O)c1ccc(-c2c3nc(c(-c4ccc(S(=O)(=O)O)cc4)c4ccc([nH]4)c(-c4ccc(S(=O)(=O)O)cc4)c4nc(c(-c5ccc(S(=O)(=O)O)cc5)c5ccc2[nH]5)C=C4)C=C3)cc1
[1]
  GI50: > 100 µM (inactive)
[2]
  GI50: > 100 µM (inactive)
[3]
  GI50: 55.6 µM (inactive)
[4]
  GI50: 45.7 µM (inactive)
[5]
  GI50: 28 µM (inactive)
[6]
  GI50: 28.3 µM (inactive)
[7]
  GI50: 23 µM (inactive)
[8]
  GI50: 42 µM (inactive)
[9]
  GI50: 39.1 µM (inactive)
[11]
  GI50: > 100 µM (inactive)
[12]
  GI50: 26.4 µM
[13]
  GI50: 55.5 µM (inactive)
[14]
  GI50: > 100 µM (inactive)
[57]
  GI50: 91.2 µM (inactive)
[15]
  GI50: 49.8 µM (inactive)
[16]
  GI50: 13.9 µM (inactive)
[17]
  GI50: 53.3 µM (inactive)
[18]
  GI50: 37.2 µM (inactive)
[19]
  GI50: 51.5 µM (inactive)
[20]
  GI50: 37.8 µM (inactive)
[21]
  GI50: > 100 µM (inactive)
[22]
  GI50: > 100 µM (inactive)
[23]
  GI50: 20.9 µM (inactive)
[24]
  GI50: 61 µM (inactive)
[25]
  GI50: 3.1 µM (inactive)
[26]
  GI50: 32.5 µM (inactive)
[27]
  GI50: 32.7 µM (inactive)
[28]
  GI50: 64.4 µM (inactive)
[29]
  GI50: 57.5 µM (inactive)
[30]
  GI50: 47.3 µM (inactive)
[31]
  GI50: 90.6 µM (inactive)
[32]
  GI50: 36.3 µM (inactive)
[33]
  GI50: 29 µM (inactive)
[34]
  GI50: 53.5 µM (inactive)
[35]
  GI50: > 100 µM (inactive)
[36]
  GI50: > 100 µM (inactive)
[37]
  GI50: 52.8 µM (inactive)
[38]
  GI50: 26.9 µM (inactive)
[39]
  GI50: > 100 µM (inactive)
[40]
  GI50: 47.4 µM (inactive)
[41]
  GI50: > 100 µM (inactive)
[42]
  GI50: 24.1 µM (inactive)
[43]
  GI50: > 100 µM (inactive)
[44]
  GI50: 51.2 µM (inactive)
[45]
  GI50: 58.3 µM (inactive)
[46]
  GI50: 42.7 µM (inactive)
[47]
  GI50: 65.9 µM (inactive)
[48]
  GI50: > 100 µM (inactive)
[49]
  GI50: 45.3 µM (inactive)
[50]
  GI50: 97.5 µM (inactive)
[51]
  GI50: 33 µM (inactive)
[52]
  GI50: 21.6 µM (inactive)
[53]
  GI50: 60.5 µM (inactive)
[54]
  GI50: > 100 µM (inactive)
[55]
  GI50: > 100 µM (inactive)
[56]
  GI50: 37.4 µM (inactive)
